Source: patent US5200409A, “Composition and use of substituted 1,3-dithiolo-and 1,4-dithiinoquinoxalines as an antimicrobial” (The Dow Chemical Company, priority 1992, dated 1993)
≈ marks a conversion by molar mass, not a printed value. Read-outs that look alike come from different tables or passages of the source.

What was measured:
Aspergillus niger (An) = assay: Minimum inhibitory concentration (MIC) in malt yeast agar; assay type: cell-based, Aspergillus niger ATCC 16404; conditions: read-out: Minimum Inhibitory Concentration, An
Outline: (§1)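 These fungal MICs come from an agar dilution series in malt yeast agar spanning 500 to 1.0 ppm. The plates were incubated at 30° C and read after 72 hours.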

[1] = system: Staphylococcus aureus (Sa); assay: Minimum inhibitory concentration (MIC) in nutrient agar; assay type: cell-based, Staphylococcus aureus ATCC 6538
Outline: (§2)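 Nutrient agar, pH 6.8 and 8.2; compound incorporated at 48° C, final 1.0–500 ppm; plates dried 24 h; Steer's replicator inoculum 10^8 CFU/ml from 24 h broth cultures (30° C, shaken); incubation 30° C, 48 h; endpoint = prevention of growth.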

Fusarium oxysporum (Fo) = assay: Minimum inhibitory concentration (MIC) in malt yeast agar; assay type: cell-based, Fusarium oxysporum ATCC 48112; conditions: read-out: Minimum Inhibitory Concentration, Fo
Outline: as §1

[2] = system: Pseudomonas aeruginosa (PRD-10); assay: Minimum inhibitory concentration (MIC) in nutrient agar; assay type: cell-based, Pseudomonas aeruginosa ATCC 15442
Outline: as §2

Escherichia coli (Ec) = assay: as above; assay type: cell-based, Escherichia coli ATCC 11229
Outline: as §2

Candida albicans (Ca) = assay: Minimum inhibitory concentration (MIC) in malt yeast agar; assay type: cell-based, Candida albicans ATCC 10231; conditions: read-out: Minimum Inhibitory Concentration, Ca
Outline: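 Compound dispersed in malt yeast agar at final 500, 250, 100, 50, 25, 10, 5, 2.5, 1.0 and 0 ppm (from 1% acetone/water solution); plates dried 24 h, then inoculated with saline/octylphenoxy polyethoxy ethanol suspensions of 7-day cultures diluted 1:9. Incubated at 30° C; read at 48 h for yeast, 72 h for fungi.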

[3] = system: Aureobasidium pullulan (Ap); assay: as above; assay type: cell-based, Aureobasidium pullulan ATCC 16622; conditions: read-out: Minimum Inhibitory Concentration, Ap
Outline: as §1

[4] = system: Pseudomonas aeruginosa (Pa); assay: Minimum inhibitory concentration (MIC) in nutrient agar; assay type: cell-based, Pseudomonas aeruginosa ATCC 10145; conditions: 48 hours
Outline: as §2

Trichoderma viride (Tv) = assay: Minimum inhibitory concentration (MIC) in malt yeast agar; assay type: cell-based, Trichoderma viride ATCC 8678; conditions: read-out: Minimum Inhibitory Concentration, Tv
Outline: as §1

[5] = 48 h, pH 8.2, read-out: Minimum Inhibitory Concentration, Sa
[6] = pH 6.8, nutrient agar, 30° C., 48 hours, read-out: Minimum Inhibitory Concentration, Sa
[7] = malt yeast agar, 30° C., 72 hours for fungi
[8] = 48 h, pH 6.8, read-out: Minimum Inhibitory Concentration, PRD
[9] = 48 h, pH 8.2, read-out: Minimum Inhibitory Concentration, PRD
[10] = 48 h, pH 6.8, read-out: Minimum Inhibitory Concentration, Ec
[11] = 48 h, pH 8.2, read-out: Minimum Inhibitory Concentration, Ec
[12] = malt yeast agar, 30° C., 48 hours for yeast
[13] = 48 h, pH 6.8, read-out: Minimum Inhibitory Concentration, Sa
[14] = pH 8.2, nutrient agar, 30° C., 48 hours, read-out: Minimum Inhibitory Concentration, Sa
[15] = malt yeast agar, 30° C., 48 hours for yeast and 72 hours for fungi

Structure (SMILES): N#CC(C#N)=C1Sc2nc3ccc([N+](=O)[O-])cc3nc2S1 [L, 6-nitro-1,3-dithiolo-(4,5-b)-quinoxaline-2-ylidene-propanedinitrile]
- MIC (Aspergillus niger (An); 72 h): 2.5 µg/mL (≈ 7.98 µM)
- MIC [1, 5]: > 500 µg/mL
- MIC [1, 6]: 100 µg/mL (≈ 319 µM)
- MIC (Fusarium oxysporum (Fo); [7]): 10 µg/mL (≈ 31.9 µM)
- MIC [2, 8]: > 500 µg/mL
- MIC [2, 9]: > 500 µg/mL
- MIC (Escherichia coli (Ec); [10]): > 500 µg/mL
- MIC (Escherichia coli (Ec); [11]): > 500 µg/mL
- MIC (Candida albicans (Ca); [12]): 10 µg/mL (≈ 31.9 µM)
- MIC [3]: 5 µg/mL (≈ 16 µM)
- MIC ([4]; pH 6.8, 30° C.): > 500 µg/mL
- MIC ([4]; pH 8.2, 30° C.): > 500 µg/mL

Structure (SMILES): N#CC1=C(C#N)Sc2nc3cc(Cl)ccc3nc2S1 [C, 7-chloro-1,4-dithiino-(2,3-b)-quinoxaline-2,3-dicarbonitrile]
- MIC (Aspergillus niger (An); [7]): 25 µg/mL (≈ 82.6 µM)
- MIC [1, 13]: 50 µg/mL (≈ 165 µM)
- MIC [1, 14]: 50 µg/mL (≈ 165 µM)
- MIC (Fusarium oxysporum (Fo); [7]): 25 µg/mL (≈ 82.6 µM)
- MIC (Trichoderma viride (Tv); 72 h): 250 µg/mL (≈ 826 µM)
- MIC [2, 8]: > 500 µg/mL
- MIC [2, 9]: > 500 µg/mL
- MIC (Escherichia coli (Ec); [10]): > 500 µg/mL
- MIC (Escherichia coli (Ec); [11]): > 500 µg/mL
- MIC (Candida albicans (Ca); [12]): < 10 µg/mL
- MIC [3, 15]: < 10 µg/mL
- MIC ([4]; pH 6.8, 30° C.): > 500 µg/mL
- MIC ([4]; pH 8.2, 30° C.): > 500 µg/mL

Structure (SMILES): N#CC1=C(C#N)Sc2nc3ccccc3nc2S1 [E, 1,4-dithiino-(2,3-b)-quinoxaline-2,3-dicarbonitrile]
- MIC (Aspergillus niger (An); [7]): < 10 µg/mL
- MIC [1, 5]: < 10 µg/mL
- MIC [1, 6]: 25 µg/mL (≈ 93.2 µM)
- MIC (Fusarium oxysporum (Fo); 72 h): 50 µg/mL (≈ 186 µM)
- MIC (Trichoderma viride (Tv); 72 h): 100 µg/mL (≈ 373 µM)
- MIC [2, 8]: > 500 µg/mL
- MIC [2, 9]: > 500 µg/mL
- MIC (Escherichia coli (Ec); [10]): > 500 µg/mL
- MIC (Escherichia coli (Ec); [11]): > 500 µg/mL
- MIC (Candida albicans (Ca); [12]): < 10 µg/mL
- MIC [3, 15]: < 10 µg/mL
- MIC ([4]; pH 6.8, 30° C.): > 500 µg/mL
- MIC ([4]; pH 8.2, 30° C.): > 500 µg/mL

Structure (SMILES): N#CC(C#N)=C1Sc2nc3ccc(Cl)cc3nc2S1 [O, 6-chloro-1,3-dithiolo-(4,5-b)-quinoxaline-2-ylidene-propanedinitrile]
- MIC (Aspergillus niger (An); [7]): 500 µg/mL (≈ 1650 µM)
- MIC [1, 5]: > 500 µg/mL
- MIC [1, 6]: > 500 µg/mL
- MIC (Fusarium oxysporum (Fo); [7]): > 500 µg/mL
- MIC (Trichoderma viride (Tv); [7]): > 500 µg/mL
- MIC [2, 8]: > 500 µg/mL
- MIC [2, 9]: > 500 µg/mL
- MIC (Escherichia coli (Ec); [10]): > 500 µg/mL
- MIC (Escherichia coli (Ec); [11]): > 500 µg/mL
- MIC (Candida albicans (Ca); [12]): > 500 µg/mL
- MIC [3, 15]: 500 µg/mL (≈ 1650 µM)
- MIC ([4]; pH 6.8, 30° C.): > 500 µg/mL
- MIC ([4]; pH 8.2, 30° C.): > 500 µg/mL

Structure (SMILES): N#CC1=C(C#N)Sc2nc3cc([N+](=O)[O-])c([N+](=O)[O-])cc3nc2S1 [B, 7,8-Dinitro-1,4-dithiino-(2,3-b)quinoxaline-2,3-dicarbonitrile]
- MIC (Aspergillus niger (An); 72 h): 25 µg/mL (≈ 69.8 µM)
- MIC [1, 13]: < 10 µg/mL
- MIC [1, 5]: < 10 µg/mL
- MIC (Fusarium oxysporum (Fo); 72 h): 25 µg/mL (≈ 69.8 µM)
- MIC (Trichoderma viride (Tv); 72 h): 50 µg/mL (≈ 140 µM)
- MIC [2, 8]: > 500 µg/mL
- MIC [2, 9]: > 500 µg/mL
- MIC (Escherichia coli (Ec); [10]): 250 µg/mL (≈ 698 µM)
- MIC (Escherichia coli (Ec); [11]): > 500 µg/mL
- MIC (Candida albicans (Ca); 48 h): 25 µg/mL (≈ 69.8 µM)
- MIC [3]: 5 µg/mL (≈ 14 µM)
- MIC ([4]; pH 6.8, 30° C.): > 500 µg/mL
- MIC ([4]; pH 8.2, 30° C.): > 500 µg/mL

Structure (SMILES): Cc1ccc2nc3c(nc2c1)SC(C#N)=C(C#N)S3 [D, 7-Methyl-1,4-dithiino-(2,3-b)quinoxaline-2,3-dicarbonitrile]
- MIC (Aspergillus niger (An); 72 h): 50 µg/mL (≈ 177 µM)
- MIC [1, 5]: 500 µg/mL (≈ 1770 µM)
- MIC [1, 6]: 100 µg/mL (≈ 354 µM)
- MIC (Fusarium oxysporum (Fo); 72 h): 50 µg/mL (≈ 177 µM)
- MIC (Trichoderma viride (Tv); 72 h): 100 µg/mL (≈ 354 µM)
- MIC [2, 8]: > 500 µg/mL
- MIC [2, 9]: > 500 µg/mL
- MIC (Escherichia coli (Ec); [10]): > 500 µg/mL
- MIC (Escherichia coli (Ec); [11]): > 500 µg/mL
- MIC (Candida albicans (Ca); 48 h): 50 µg/mL (≈ 177 µM)
- MIC [3, 15]: 25 µg/mL (≈ 88.5 µM)
- MIC ([4]; pH 6.8, 30° C.): > 500 µg/mL
- MIC ([4]; pH 8.2, 30° C.): > 500 µg/mL

Structure (SMILES): N#CC1=C(C#N)Sc2nc3cc([N+](=O)[O-])ccc3nc2S1 [A, 7-nitro-1,4-dithiino-(2,3-b)-quinoxaline-2,3-dicarbonitrile]
- MIC [1, 13]: < 10 µg/mL
- MIC [1, 14]: 100 µg/mL (≈ 319 µM)
- MIC (Fusarium oxysporum (Fo); [7]): 2.5 µg/mL (≈ 7.98 µM)
- MIC (Trichoderma viride (Tv); 72 h): 10 µg/mL (≈ 31.9 µM)
- MIC [2, 9]: > 500 µg/mL
- MIC ([2]; pH 6.8, nutrient agar, 30° C., 48 hours, read-out: Minimum Inhibitory Concentration, PRD): 250 µg/mL (≈ 798 µM)
- MIC (Escherichia coli (Ec); [11]): > 500 µg/mL
- MIC (Escherichia coli (Ec); pH 6.8, nutrient agar, 30° C., 48 hours, read-out: Minimum Inhibitory Concentration, Ec): 25 µg/mL (≈ 79.8 µM)
- MIC (Candida albicans (Ca); 48 h): 2.5 µg/mL (≈ 7.98 µM)
- MIC [3]: 2.5 µg/mL (≈ 7.98 µM)
- MIC ([4]; pH 6.8, 30° C.): 100 µg/mL (≈ 319 µM)
- MIC ([4]; pH 8.2, 30° C.): > 500 µg/mL

Structure (SMILES): N#CC(C#N)=C1Sc2nc3cc([N+](=O)[O-])c([N+](=O)[O-])cc3nc2S1 [M, 6,7-dinitro-1,3-dithiolo-(4,5-b)-quinoxaline-2-ylidene-propanedinitrile]
- MIC (Aspergillus niger (An); 72 h): 2.5 µg/mL (≈ 6.98 µM)
- MIC [1, 13]: < 10 µg/mL
- MIC [1, 5]: 100 µg/mL (≈ 279 µM)
- MIC (Fusarium oxysporum (Fo); 72 h): 5 µg/mL (≈ 14 µM)
- MIC (Trichoderma viride (Tv); 72 h): 10 µg/mL (≈ 27.9 µM)
- MIC [2, 8]: > 500 µg/mL
- MIC [2, 9]: > 500 µg/mL
- MIC (Escherichia coli (Ec); [10]): > 500 µg/mL
- MIC (Escherichia coli (Ec); [11]): > 500 µg/mL
- MIC (Candida albicans (Ca); 48 h): 2.5 µg/mL (≈ 6.98 µM)
- MIC [3]: 2.5 µg/mL (≈ 6.98 µM)
- MIC ([4]; pH 6.8, 30° C.): 500 µg/mL (≈ 1400 µM)
- MIC ([4]; pH 8.2, 30° C.): > 500 µg/mL
